Legend:
PARP-7 = molecular target: T1, PARP-7 (Homo sapiens, UniProt Q7Z3E1); details: time course in HEK 293 T cells
T1 sequence (Q7Z3E1 1-657): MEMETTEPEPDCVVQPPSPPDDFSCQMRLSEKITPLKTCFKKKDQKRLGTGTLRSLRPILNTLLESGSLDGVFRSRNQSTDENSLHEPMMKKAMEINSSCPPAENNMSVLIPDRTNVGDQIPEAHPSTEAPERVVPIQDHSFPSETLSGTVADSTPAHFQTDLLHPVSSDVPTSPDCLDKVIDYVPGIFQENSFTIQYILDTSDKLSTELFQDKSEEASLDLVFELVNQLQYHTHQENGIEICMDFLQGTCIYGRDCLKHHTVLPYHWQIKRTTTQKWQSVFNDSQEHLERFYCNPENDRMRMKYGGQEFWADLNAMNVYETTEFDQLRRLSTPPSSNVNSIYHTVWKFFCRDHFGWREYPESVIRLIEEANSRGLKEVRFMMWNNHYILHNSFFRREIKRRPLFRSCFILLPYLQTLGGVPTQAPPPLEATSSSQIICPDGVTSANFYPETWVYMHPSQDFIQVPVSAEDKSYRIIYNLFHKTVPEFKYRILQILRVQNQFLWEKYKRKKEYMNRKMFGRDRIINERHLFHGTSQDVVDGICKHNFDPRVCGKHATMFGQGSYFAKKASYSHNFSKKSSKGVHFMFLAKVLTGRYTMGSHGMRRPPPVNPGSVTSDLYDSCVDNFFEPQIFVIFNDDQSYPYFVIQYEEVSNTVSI

IG-PARP-7 (I631G PARP-7) = molecular target: T2, IG-PARP-7 (I631G PARP-7) (Homo sapiens, UniProt Q7Z3E1, I631G); assay: Labeling by orthogonal NAD+ analogs in HEK 293T lysates expressing GFP-IG-PARP-7 (click with biotin-azide, Streptavidin-HRP); format: biochemical; details: HEK 293 T cell lysates, 100 µM NAD+ analog
T2 construct: expressed in transfected cells; host or cells: HEK 293T (lysate)
From the text: Identifying the protein targets of PARP-7 is a critical first step toward unraveling its function in cells. In previous work we have developed an engineered enzyme—modified substrate strategy for identifying relevant targets of individual PARP family members ([Carter-O'Connell et al., 2014]; [Carter-O'Connell et al., 2016]; [Carter-O'Connell and Cohen, 2015]; [Carter-O'Connell et al., 2018]). This chemical genetic (CG) method uses engineered PARPs and an orthogonal NAD^+ analogue that contains a clickable handle (e.g. an alkyne) that is located at the N-6 position of the adenine ring (5-Bn-6-a-NAD^+). […] Importantly, 5-Bn-6-a-NAD^+ is not used by wild-type (WT) PARPs and in this way is orthogonal to native NAD^+. […] We therefore sought a new orthogonal NAD^+ analogue that would serve as an efficient substrate for floor position engineered PARP-7, I631G PARP-7 (IG-PARP-7) (Figure 1a).
Figure 1. A chemical genetic strategy for identifying the direct MARylation targets of PARP-7. (a) Schematic of chemical genetic approach for identifying direct targets of PARP-7. (b) Crystal structure of human PARP1 bound to the non-hydrolyzable NAD^+ analog benzamide adenine dinucleotide (BAD). PDB: 6bhv. […] Following copper-catalyzed click chemistry with biotin-azide, proteins were resolved by SDS-PAGE and biotinylated proteins were detected by Western blot detection using Streptavidin-HRP. […]

T2 sequence (Q7Z3E1 whole entry I631G): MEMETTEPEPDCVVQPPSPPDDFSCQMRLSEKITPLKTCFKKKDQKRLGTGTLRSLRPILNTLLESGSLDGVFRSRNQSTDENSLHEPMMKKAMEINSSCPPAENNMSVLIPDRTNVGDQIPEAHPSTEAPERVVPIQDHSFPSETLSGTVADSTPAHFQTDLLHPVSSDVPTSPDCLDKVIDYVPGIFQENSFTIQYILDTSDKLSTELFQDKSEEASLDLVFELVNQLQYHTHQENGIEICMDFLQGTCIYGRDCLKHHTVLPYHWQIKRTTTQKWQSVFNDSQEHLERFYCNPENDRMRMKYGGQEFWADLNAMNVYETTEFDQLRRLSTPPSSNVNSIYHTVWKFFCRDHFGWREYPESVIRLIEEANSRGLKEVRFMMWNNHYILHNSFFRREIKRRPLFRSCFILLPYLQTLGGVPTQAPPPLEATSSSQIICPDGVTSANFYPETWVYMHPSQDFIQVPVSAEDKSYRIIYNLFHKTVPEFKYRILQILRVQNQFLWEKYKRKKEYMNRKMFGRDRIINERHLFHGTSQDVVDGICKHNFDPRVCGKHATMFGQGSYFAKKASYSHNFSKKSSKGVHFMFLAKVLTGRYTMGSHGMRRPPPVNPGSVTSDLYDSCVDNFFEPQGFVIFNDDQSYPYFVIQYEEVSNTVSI

Row | decay of PARP-7-mediated MARylation of PARP-13.2 (PARP-7) | Structure (SMILES) | substrate for floor position engineered PARP-7 (IG-PARP-7) (IG-PARP-7 (I631G PARP-7))
1 | does not lead to the decay | C[C@]1(c2nc3c(C(N)=O)cccc3[nH]2)CCCN1 [veliparib] | 
2 |  | C#CCNc1ncnc2c1ncn2C1OC(COP(=O)(O)OP(=O)([O-])OCC2OC([n+]3cc(Cc4ccccc4)cc(C(N)=O)c3)C(O)C2O)C(O)C1O (centres unmarked) [5-Bn-6-a-NAD^+, reference compound] | poor substrate
